Assay results reported in patent US5863950A, “HIV protease inhibitors” (Agouron Pharmaceuticals, Inc., priority 1994, dated 1999).
In brackets after ≈: the same amount, converted by molar mass. Like-named read-outs stand apart in the source and are kept apart here.

Key:
[1] = biological target: T1, HIV-1 protease (Human immunodeficiency virus type 1 group M subtype B, UniProt P04585); test: biochemical; assay type: biochemical
T1 construct: purified HIV-1 protease
Description: 1. Proteolytic activity of purified HIV-1 protease was routinely measured using the chromogenic assay developed by Richards et al. (J. Biol. Chem. 265: 7733 (1990)). Synthetic peptide His-Lys-Ala-Arg-Val-Leu-Phe (pNO2)-Glu-Ala-Nle-Ser-NH2 (American Peptide Company) was used as the substrate.
2. The assay was carried out in 0.5M NaCl, 50 mM MES pH 5.6, 2% DMSO (dimethylsulfoxide) at 37° C. Cleavage of the scissile bond between leucine and paranitro-phenylalanine (Phe(pNO2)) was assayed by spectrophotometric monitoring of the decrease in absorbance at 305 nm. Initial velocity was determined as the rate of decline of absorbance during the first 100 seconds of reaction.
3. […] Between 15-25 concentrations of inhibitor were added and velocity of reaction was measured at each of the concentrations, as described above.
4. Inhibition constants were calculated using the method of Jackson et al. (Adv. in Enzyme Regulation 22: 187 (1984)).

[2] = system: HIV-1 (CEM cells); test: Anti-HIV MTT assay, inhibition of HIV-induced cell killing, CEM cells; assay type: cell-based, HIV-1 isolates IIIB and/or RF; conditions: Human immunodeficiency virus 1, CCRF-CEM, 144 h, CEM cell line (first position), 6 days, 37° C., read-out: Viral CEM
Source text: (§1) SRI has an established program for the primary antiviral analysis of compounds in microtiter assays which measure the ability of a selected compound to inhibit HIV-induced cell killing. This assay involves the conversion of the tetrazolium dye MTT to a colored formazan product by mitochondrial enzymes in metabolically active cells. This assay system is presently used at SRI to screen over 30,000 compounds per year. Briefly, the assay involves the infection of CEM or MT2 cells in round bottom 96-well plates. The compound of interest is added just prior to infection. Following 6 days of incubation at 37° C. the plates are stained with MTT. The results of the assay are quantitated spectrophotometrically on a Molecular Devices Vmax plate reader. The data is analyzed by linear regression utilizing an in-house software program to calculate antiviral activity. (IC25, IC50, IC95) and toxicity (TC25, TC50, TC95) as well as other values.
(§2) Primary antiviral assays are routinely performed in CEM or MT-2 cells.
(§3) Drugs will be solubilized in the appropriate vehicle such as distilled water or DMSO if necessary. Latex gloves, lab coats and masks are used during all phases of the handling process to prevent exposure to potentially harmful agents. The drug is prepared at the appropriate concentration and stored at -20° C. until used by the screening laboratory. The first dilution of each compound is made in a dilution tube with medium to yield a concentration two-fold that of the highest test concentration. Sterile titer tubes are then used to make serial one half-log dilutions of each compound. Following drug dilution, the diluted compound is added to the appropriate well of a 96-well microtiter plate. Up to 12 dilutions can be assayed conveniently in triplicate on a single plate with all appropriate controls including cell control, virus control, toxicity control, drug color control, medium control and plastic (background) control. When testing includes only six dilutions, two drugs can be assayed on a single microtiter plate. The drugs are added to the plate in a final volume of 100 microliters.
(§4) During the time the drug dilutions are prepared, cells are washed and counted. Viability is monitored by trypan blue dye exclusion and assays are not performed if the viability falls below 90%. Cells are maintained in an exponential growth phase and are split 1:2 on the day prior to assay to assure exponential growth rate.
(§5) For the primary screen, the cell lines utilized are CEM and MT-2. Unless otherwise indicated, the medium used is RPMI 1640 with 10% heat-inactivated fetal calf serum (FBS), glutamine and antibiotics.
(§6) Cells are propagated at 37° C. in an atmosphere of 5% CO2 in air. The virus employed for this work is HIV-1 isolates IIIB and/or RF, which are prepared by an acute infection process.
(§7) Briefly, virus-infected cells are pelleted on a daily basis beginning at three days post-infection until the virus has killed all of the cells in the culture. Reverse transcriptase activity and p24 ELISA are used to identify pools with the greatest amount of virus.
(§8) These 24-hour harvests are pooled, filtered and frozen at -90° C. Prior to use in the assay, the infectious pool of virus is titered on all available cell lines in order to determine the amount of virus required in the antiviral assay.
(§9) In general, pools produced by the acute infection method require the addition of one microliter of infectious virus per well resulting in the screening of drugs at a multiplicity of infection of 0.01. In this manner enough virus is prepared and frozen to complete over one thousand microtiter plates, allowing the testing of up to two thousand compounds from a single stock of infectious virus. The use of a single stock of virus for a long period of testing has very favorable effects on the repeatability of the assay systems.
(§10) Virus infection of the CEM and MT-2 cells for the antiviral assay is carried out in a bulk infection process. […]

[3] = system: HIV-1 (MT-2 cells); test: Anti-HIV MTT assay, inhibition of HIV-induced cell killing, MT-2 cells; assay type: cell-based, HIV-1 isolates IIIB and/or RF; conditions: Human immunodeficiency virus 1, MT2, 144 h; MT-2 cells (second position), 6 days, 37° C., MTT; read-out: Viral MT-2
Source text: as §1, §2, §3, §4, §5, §6, §7, §8, §9, §10

[4] = 0.5M NaCl, 50 mM MES pH 5.6, 2% DMSO, 37° C., 200 μM substrate

IC50 [1, 4] | Ki [1, 4] | IC50 [1] | Ki [1] | percent (inhibition) ([1]; at 20 (μM)) | SMILES | IC50 [2] | IC50 [3]
82 nM | 31 nM |  |  |  | CC(C)(c1ccccc1)N(CCO)C(=O)c1ccccc1CCC(O)Cc1ccccc1C(=O)N(CCO)C(C)(C)c1ccccc1 (centres unmarked) [Example 65] | 0.89 µg/mL (≈ 1.4 µM) | 1.76 µg/mL (≈ 2.76 µM)
103 nM | 10 nM |  |  |  | CCC1(N(CCO)C(=O)c2ccccc2CCC(O)Cc2ccc(C)cc2C(=O)N(CCO)C(C)(C)c2ccc(OCCCN(CCO)CCO)cc2)CCCC1 (centres unmarked) [Example 113] | 1.73 µg/mL (≈ 2.19 µM) | 1.58 µg/mL (≈ 2 µM)
90 nM | 1.5 nM |  |  |  | CCC1(N(CCO)C(=O)c2ccccc2CCC(O)Cc2ccccc2C(=O)N(CCO)C(CC)(CC)c2ccccc2)CCCC1 (centres unmarked) [Example 95] | 0.6 µg/mL (≈ 0.933 µM) | 1.46 µg/mL (≈ 2.27 µM)
420 nM | 320 nM |  |  |  | CC(C)(C)N(CCO)C(=O)c1ccccc1CCC(=O)C(F)(F)c1ccccc1C(=O)N(CCO)C(C)(C)c1ccccc1 [Example 78] | > 10 µg/mL | 6.64 µg/mL (≈ 10.9 µM)
133 nM | 2.3 nM |  |  |  | CCC1(N(CCO)C(=O)c2ccccc2CCC(O)Cc2ccc(C)cc2C(=O)N(CC2COC(C)(C)OC2)C(C)(C)c2ccccc2)CCCC1 (centres unmarked) [Example 102] | 0.42 µg/mL (≈ 0.589 µM) | 0.47 µg/mL (≈ 0.659 µM)
108 nM | 9.8 nM |  |  |  | CCC1(N(CCO)C(=O)c2ccccc2CCC(O)Cc2ccc(C)cc2C(=O)N(CCO)C(C)(C)c2ccc(OCCN3CCOCC3)cc2)CCCC1 (centres unmarked) [Example 108] | 0.64 µg/mL (≈ 0.844 µM) | 0.56 µg/mL (≈ 0.739 µM)
 |  | 63 nM | 4 nM |  | CCC1(N(CCO)C(=O)c2ccccc2CCC(O)Cc2ccc(C)cc2C(=O)N(CCO)C(C)(C)c2ccc(O)cc2)CCCC1 (centres unmarked) [Example 96] | 0.57 µg/mL (≈ 0.884 µM) | 1.18 µg/mL (≈ 1.83 µM)
141 nM | 0.55 nM |  |  |  | CCC1(N(CCO)C(=O)c2ccccc2CCC(O)Cc2ccc(C)cc2C(=O)N(CCO)C2(c3ccccc3)CCCC2)CCCC1 (centres unmarked) [Example 94] | 0.52 µg/mL (≈ 0.794 µM) | 1.47 µg/mL (≈ 2.24 µM)
89 nM | 12 nM |  |  |  | Cc1ccc(CC(O)CCc2ccccc2C(=O)N(CCO)C(C)(C)c2ccccc2)c(C(=O)N(CCO)C(C)(C)c2ccccc2)c1 (centres unmarked) [Example 80] | 0.53 µg/mL (≈ 0.814 µM) | 0.68 µg/mL (≈ 1.04 µM)
950 nM | 840 nM |  |  |  | CC(C)(C)N(CCO)C(=O)c1ccccc1CCC(O)Cc1ccccc1C(=O)N(CCO)C1(C)CCCC1 (centres unmarked) [Example 5] | 17.4 µg/mL (≈ 32.3 µM) | 32 µg/mL (≈ 59.4 µM)
86 nM | 1 nM |  |  |  | CCC1(N(CCO)C(=O)c2ccccc2CCC(O)Cc2ccc(Cl)cc2C(=O)N(CCO)C(C)(C)c2ccccc2)CCCC1 (centres unmarked) [Example 105] | 0.47 µg/mL (≈ 0.724 µM) | 0.49 µg/mL (≈ 0.755 µM)
820 nM | 790 nM |  |  |  | CC(C)(C)NC(=O)c1c(CCC(O)Cc2ccccc2C(=O)N(Cc2ncc[nH]2)C(C)(C)C)ccc2ccccc12 (centres unmarked) [Example 12] | 29.5 µg/mL (≈ 53.2 µM) | 
 |  |  |  |  | CCC1(N(CCO)C(=O)c2ccccc2CCC(O)Cc2ccc(C)cc2C(=O)N(CCO)C(C)(C)c2ccccc2)CCCC1 (centres unmarked) [Example 18] | 0.49 µg/mL (≈ 0.779 µM) | 0.53 µg/mL (≈ 0.843 µM)
 |  | 1030 nM | 835 nM |  | CC(C)(C)N(CCO)C(=O)c1ccccc1CCC(O)Cc1ccccc1C(=O)N(CCO)C(C)(C)C (centres unmarked) [Example 1] | 18.6 µg/mL (≈ 36.3 µM) | 23 µg/mL (≈ 44.9 µM)
68 nM | 5.4 nM |  |  |  | CCC1(N(CCOC(C)=O)C(=O)c2ccccc2CCC(O)Cc2ccc(C)cc2C(=O)N(CCOC(C)=O)C(C)(C)c2ccccc2)CCCC1 (centres unmarked) [Example 110] | 0.69 µg/mL (≈ 0.968 µM) | 1.72 µg/mL (≈ 2.41 µM)
290 nM | 17 nM |  |  |  | CCC1(N(CCO)C(=O)c2ccccc2CCC(O)Cc2ccc(C)cc2C(=O)N(CC2CCCO2)C(C)(C)c2ccccc2)CCCC1 (centres unmarked) [Example 115] | 4.16 µg/mL (≈ 6.22 µM) | 6.34 µg/mL (≈ 9.48 µM)
104 nM | 17 nM |  |  |  | CCC1(N(CCO)C(=O)c2ccccc2CCC(O)Cc2ccccc2C(=O)N(CCO)C(C)(C)c2ccccc2)CCCC1 (centres unmarked) [Example 82] | 0.75 µg/mL (≈ 1.22 µM) | 0.64 µg/mL (≈ 1.04 µM)
169 nM | 152 nM |  |  |  | Cc1ccc(CCC(O)Cc2ccccc2C(=O)N(CCO)C(C)(C)c2ccccc2)c(C(=O)N(CCO)C(C)(C)C)c1 (centres unmarked) [Example 62] | 2.86 µg/mL (≈ 4.86 µM) | 4.98 µg/mL (≈ 8.46 µM)
144 nM | 17 nM |  |  |  | CCc1ccc(CC(O)CCc2ccccc2C(=O)N(CCO)C(C)(C)c2ccccc2)c(C(=O)N(CCO)C(C)(C)c2ccccc2)c1 (centres unmarked) [Example 89] | 1 µg/mL (≈ 1.5 µM) | 1.79 µg/mL (≈ 2.69 µM)
183 nM | 88 nM |  |  |  | CCCC(CC)(CC)N(CCO)C(=O)c1ccccc1CC(O)CCc1ccccc1C(=O)N(CCO)C(C)(C)C (centres unmarked) [Example 92] | 2.12 µg/mL (≈ 3.73 µM) | 5.06 µg/mL (≈ 8.9 µM)
52 nM | 8 nM |  |  |  | CCC1(N(CCO)C(=O)c2ccccc2CCC(O)Cc2ccc(C)cc2C(=O)N(CCO)C(C)(C)c2ccc(OCc3ccc[n+]([O-])c3)cc2)CCCC1 (centres unmarked) [Example 111] | 1.03 µg/mL (≈ 1.37 µM) | 1.81 µg/mL (≈ 2.41 µM)
351 nM | 315 nM |  |  |  | Cc1ccc(CCC(O)Cc2ccccc2C(=O)N(CCOCc2ccccc2)C(C)(C)c2ccccc2)c(C(=O)N(CCO)C(C)(C)C)c1 (centres unmarked) [Example 84] | > 100 µg/mL | > 100 µg/mL
 |  | 81 nM | 9.6 nM |  | CCC1(N(CCO)C(=O)c2ccccc2CCC(O)Cc2ccc(C)cc2C(=O)N(CCC(O)CO)C(C)(C)c2ccccc2)CCCC1 (centres unmarked) [Example 104] | 0.58 µg/mL (≈ 0.862 µM) | 0.55 µg/mL (≈ 0.817 µM)
398 nM | 230 nM |  |  |  | CCC1(N(CCO)C(=O)c2ccccc2CCC(O)Cc2ccc(C)cc2C(=O)N(CCOC(=O)[C@@H](N)C(C)C)C(C)(C)c2ccccc2)CCCC1 (some centres unmarked) [Example 114] | 2.11 µg/mL (≈ 2.9 µM) | 1.75 µg/mL (≈ 2.4 µM)
180 nM | 21 nM |  |  |  | Cc1ccc(CC(O)CCc2ccccc2C(=O)N(CCO)C(C)(C)C)c(C(=O)N(CCO)C(C)(C)c2ccccc2)c1 (centres unmarked) [Example 74] | 3.69 µg/mL (≈ 6.27 µM) | 5.54 µg/mL (≈ 9.41 µM)
67 nM | 3.9 nM |  |  |  | CCC1(N(CC2COC(C)(C)OC2)C(=O)c2ccccc2CCC(O)Cc2ccc(C)cc2C(=O)N(CC2COC(C)(C)OC2)C(C)(C)c2ccccc2)CCCC1 (centres unmarked) [Example 106] | 3.91 µg/mL (≈ 4.91 µM) | 1.7 µg/mL (≈ 2.13 µM)
 |  |  |  |  | CCC1(N(CCO)C(=O)c2ccccc2CC[C@@H](O)Cc2ccc(C)cc2C(=O)N(CCO)C(C)(C)c2ccccc2)CCCC1 [Example 112] | 0.54 µg/mL (≈ 0.859 µM) | 1.47 µg/mL (≈ 2.34 µM)
1740 nM | 920 nM |  |  |  | CC(C)(C)N(CCO)C(=O)c1ccccc1CCC(O)Cc1ccccc1C(=O)N(CCOCc1ccccc1)C(C)(C)c1ccncc1 (centres unmarked) [Example 76] |  | 
 |  |  |  | 40% | CC(C)(C)NC(=O)c1cc2ccccc2cc1CCC(O)Cc1ccc2ccccc2c1C(=O)NC(C)(C)C (centres unmarked) [Example 9] |  | 
200000 nM |  |  |  |  | CC(C)(C)NC(=O)c1ccccc1CC(O)CSc1ccc(NCc2ccncc2)cc1C(=O)NC(C)(C)C (centres unmarked) [Example 46] |  | 
